We go through 36 molecules from ChEMBL document CHEMBL1134540, “ElogD(oct): a tool for lipophilicity determination in drug discovery. 2. Basic and neutral compounds” (J Med Chem, 2001).

By logD is commonly meant the decadic logarithm of the distribution of all forms, ionised or not, between an organic phase and buffer at a given pH. A low value points to lower lipophilicity.

The structures appear in SMILES notation.

The data set in a line: Partition coefficient (logD7.4). To be noted: octanol/water, pH 7.4.
On to `CC(C)(C)NCC(O)c1cc(O)cc(O)c1` (stereo unspecified), for which the logD is -1.35. As for `CNS(=O)(=O)Cc1ccc2[nH]cc(CCN(C)C)c2c1`, the figure is -1; as for `Oc1cc(Cl)cc(Cl)c1`, 3.68; as for `CSc1ncnc2c1ncn2[C@@H]1O[C@H](CO)[C@@H](O)[C@H]1O`, 0.09. As for `Brc1cnc2ccccc2c1`, the figure is 3.03; as for `Nc1nc(N)c2nc(-c3ccccc3)c(N)nc2n1`, 1.21; as for `Oc1ncnc2[nH]ncc12` [ALLOPURINOL], -0.44. As for `C=CCc1ccccc1OCC(O)CNC(C)C` (stereo unspecified) [ALPRENOLOL], the figure is 0.97. In the case of `CCOC(=O)C1=C(COCCN)NC(C)=C(C(=O)OC)C1c1ccccc1Cl` (stereo unspecified) [AMLODIPINE], the pH-dependent lipophilicity (logD) is 1.66. Consider `c1ccc(-c2ccc(C(c3ccccc3)n3ccnc3)cc2)cc1` (stereo unspecified) [BIFONAZOLE], for which the logD came to 4.77. As for `O=C1CN=C(c2ccccn2)c2cc(Br)ccc2N1` [BROMAZEPAM], the figure is 1.65; as for `NC(=O)N1c2ccccc2C=Cc2ccccc21` [CARBAMAZEPINE], 2.19; as for `CN(C)CCC(c1ccc(Cl)cc1)c1ccccn1` (stereo unspecified) [CHLORPHENIRAMINE], 1.41. The figure for `NS(=O)(=O)c1cc(C2(O)NC(=O)c3ccccc32)ccc1Cl` (stereo unspecified) [CHLORTHALIDONE] is 1.11. The figure for `Clc1cccc(Cl)c1N=C1NCCN1` [CLONIDINE] is 0.62; for `COC(=O)[C@H]1[C@@H](OC(=O)c2ccccc2)C[C@@H]2CC[C@H]1N2C` [COCAINE] it is 1.05; for `COc1ccc2c3c1O[C@H]1[C@@H](O)C=C[C@H]4[C@@H](C2)N(C)CC[C@@]341` [CODEINE] it is 0.23. `CC/C(=C(/CC)c1ccc(O)cc1)c1ccc(O)cc1` [DIETHYLSTILBESTROL] showed a log distribution coefficient (logD) of 5.07. For the molecule `CC(C)N(CCC(C(N)=O)(c1ccccc1)c1ccccn1)C(C)C` (stereo unspecified) [DISOPYRAMIDE], the log distribution coefficient (logD) was -0.66. As for `O=C(NCC1CCCCN1)c1cc(OCC(F)(F)F)ccc1OCC(F)(F)F` (stereo unspecified) [FLECAINIDE], the figure is 0.97; as for `COC1=CC(=O)C[C@@H](C)[C@]12Oc1c(Cl)c(OC)cc(OC)c1C2=O` [GRISEOFULVIN], 2.18; as for `CN1C(=O)C(O)N=C(c2ccccc2Cl)c2cc(Cl)ccc21` (stereo unspecified) [LORMETAZEPAM], 2.72. As for `CN1CCC[C@H]1c1cccnc1` [NICOTINE], the figure is 0.4; as for `O=[N+]([O-])c1ccc(/C=N/O)o1` [NIFUROXIME], 1.28.

Molecule `NC(=O)N/N=C/c1ccc([N+](=O)[O-])o1` [NITROFURAZONE] came in with a log distribution coefficient (logD) of 0.23. The figure for `CNC(=C[N+](=O)[O-])NCCSCc1csc(CN(C)C)n1` [NIZATIDINE] is -0.52.

Turning to `COc1ccc2[nH]c([S+]([O-])Cc3ncc(C)c(OC)c3C)nc2c1` (stereo unspecified) [OMEPRAZOLE], the pH-dependent lipophilicity (logD) is 2.3. As for `CC(=O)CCCCn1c(=O)c2c(ncn2C)n(C)c1=O` [PENTOXIFYLLINE], the figure is 0.29; as for `CN1CCN(CC(=O)N2c3ccccc3C(=O)Nc3cccnc32)CC1` [PIRENZEPINE], -0.61. The figure for `c1ccc2ncccc2c1` [QUINOLINE] is 2.03; for `CNC(=C[N+](=O)[O-])NCCSCc1ccc(CN(C)C)o1` [RANITIDINE] it is -0.29.

`C[C@]12CC[C@H]3[C@@H](CCC4=CC(=O)CC[C@@]43C)[C@@H]1CC[C@@H]2O` [TESTOSTERONE] displayed a logD of 3.29. For the molecule `CCCCNc1ccc(C(=O)OCCN(C)C)cc1` [TETRACAINE], the pH-dependent lipophilicity (logD) was 2.29. As for `CS(=O)(=O)c1ccc([C@@H](O)[C@@H](CO)NC(=O)C(Cl)Cl)cc1` [THIAMPHENICOL], the figure is -0.27. The figure for `CSc1ccc2c(c1)N(CCC1CCCCN1C)c1ccccc1S2` (stereo unspecified) [THIORIDAZINE] is 3.34; for `CCN(CC)CCNC(=O)c1cc(S(C)(=O)=O)ccc1OC` [TIAPRIDE] it is -0.09.
